The species entered for one test is Homo sapiens. In words: Antitumor activity against patient-derived breast cancer organoid assessed as phenotypic change at 5 uM incubated for 120 hrs by bright-field imaging microscopic analysis. It counts as functional, tissue-based.
The nature of test [1]: Antitumor activity against patient-derived breast cancer organoid assessed as reduction in cell viability incubated for 120 hrs by CellTiter-Glo 3D assay. Format: functional, tissue-based. As to conditions: Homo sapiens.
The subject of test [2] is MDA-MB-231. In words: Induction of apoptosis in human MDA-MB-231 cells assessed as early apoptotic cells at 100 nM incubated for 48 hrs by Annexin V-PE staining based flow cytometric analysis (reference value: 3.95 to 3.74%). Format: functional.
For test [3], the system named is MDA-MB-231. As to the kind of experiment: Induction of apoptosis in human MDA-MB-231 cells assessed as viable cells at 100 nM incubated for 48 hrs by Annexin V-PE staining based flow cytometric analysis (reference value: 92.59 to 92.71%). It counts as functional. As to conditions: read-out: Activity.
In test [4] the test system is MDA-MB-231. As to the kind of experiment: Induction of apoptosis in human MDA-MB-231 cells assessed as necrotic cells at 33.3 nM incubated for 48 hrs by Annexin V-PE staining based flow cytometric analysis (reference value: 2.64 to 3.23%). Format: functional.
For test [5], the system named is MDA-MB-231. In words: Induction of cell cycle arrest in human MDA-MB-231 cells assessed as G0/G1 phase cells at 33.3 nM incubated for 24 hrs by PI staining based flow cytometric analysis (reference value: 63.32 to 64.94%). It counts as functional. Background: A flow cytometer gives signals particle by particle.
Test [6] has as its system MDA-MB-231. As to the kind of experiment: Induction of apoptosis in human MDA-MB-231 cells assessed as early apoptotic cells at 33.3 nM incubated for 48 hrs by Annexin V-PE staining based flow cytometric analysis (reference value: 3.95 to 3.74%). It counts as functional.
The subject of test [7] is MDA-MB-231. As to the kind of experiment: Induction of apoptosis in human MDA-MB-231 cells assessed as late apoptotic cells at 33.3 nM incubated for 48 hrs by Annexin V-PE staining based flow cytometric analysis (reference value: 0.32 to 0.82%). It counts as functional.
Another test concerns MDA-MB-436. As to the kind of experiment: Antiproliferative activity against human MDA-MB-436 cells expressing AXL assessed as inhibition of cell growth incubated for 72 hrs by CCK8 assay. It counts as functional, cell-based. As to conditions: MDA-MB-436, 72 h. On the technique in general: Tetrazolium assays rely on reduction of a dye to a coloured formazan, in cell work by metabolically active cells.

The test system of test [8] is MDA-MB-231. In words: Induction of cell cycle arrest in human MDA-MB-231 cells assessed as S phase cells at 33.3 nM incubated for 24 hrs by PI staining based flow cytometric analysis (reference value: 9.64 to 10.79%). It counts as functional.
Test [9] has as its target ALK tyrosine kinase receptor (Homo sapiens, UniProt Q9UM73). In words: Inhibition of ALK (unknown origin).
The subject of test [10] is MDA-MB-231. In words: Induction of cell cycle arrest in human MDA-MB-231 cells assessed as accumulation of cell at G2/M phase at 100 nM incubated for 24 hrs by PI staining based flow cytometric analysis (reference value: 24.34 to 24.44%). Format: functional.
For test [11], the system named is MDA-MB-231. As to the kind of experiment: Induction of apoptosis in human MDA-MB-231 cells assessed as upregulation of cleaved PARP expression at 100 to 300 nM by Western blot analysis. As to conditions: dose 100-300 nM. It counts as functional, cell-based. In general terms: A western blot detects proteins with antibodies after separation by electrophoresis.
In test [12] the test system is MDA-MB-231. As to the kind of experiment: Induction of cell cycle arrest in human MDA-MB-231 cells assessed as S phase cells at 100 nM incubated for 24 hrs by PI staining based flow cytometric analysis (reference value: 9.64 to 10.79%). Format: functional.
The test system of test [13] is MDA-MB-231. In words: Induction of apoptosis in human MDA-MB-231 cells assessed as downregulation of caspase-9 expression at 100 to 300 nM by Western blot analysis. As to conditions: dose 100-300 nM. It counts as functional, cell-based.
In test [14] the test system is MDA-MB-231. As to the kind of experiment: Induction of cell cycle arrest in human MDA-MB-231 cells assessed as S phase cells at 300 nM incubated for 24 hrs by PI staining based flow cytometric analysis (reference value: 9.64 to 10.79%). Format: functional.
Test [15] has as its system MDA-MB-231. As to the kind of experiment: Induction of cell cycle arrest in human MDA-MB-231 cells assessed as G0/G1 phase cells at 300 nM incubated for 24 hrs by PI staining based flow cytometric analysis (reference value: 63.32 to 64.94%). Format: functional.
Test [16] relates to MDA-MB-231. In words: Induction of apoptosis in human MDA-MB-231 cells assessed as viable cells at 33.3 nM incubated for 48 hrs by Annexin V-PE staining based flow cytometric analysis (reference value: 92.59 to 92.71%). Format: functional. As to conditions: read-out: Activity.
For test [17], the system named is MDA-MB-231. As to the kind of experiment: Induction of apoptosis in human MDA-MB-231 cells assessed as necrotic cells at 300 nM incubated for 48 hrs by Annexin V-PE staining based flow cytometric analysis (reference value: 2.64 to 3.23%). Format: functional.
Test [18] relates to MDA-MB-231. As to the kind of experiment: Induction of cell cycle arrest in human MDA-MB-231 cells assessed as decrease in cyclin B1 level at 100 to 300 nM by Western blot analysis. As to conditions: dose 100-300 nM. Format: functional, cell-based.
The target of test [19] is Serine/threonine-protein kinase AKT (Homo sapiens) (UniProt P31751+Q9Y243+P31749). In words: Inhibition of AKT phosphorylation in human MDA-MB-231 at 1.2 to 100 nM incubated for 18 hrs by Western blot analysis. It counts as cell-based. As to conditions: dose 1.2-100 nM.
Chain of Serine/threonine-protein kinase AKT (Homo sapiens) (P31749 whole entry, looked up): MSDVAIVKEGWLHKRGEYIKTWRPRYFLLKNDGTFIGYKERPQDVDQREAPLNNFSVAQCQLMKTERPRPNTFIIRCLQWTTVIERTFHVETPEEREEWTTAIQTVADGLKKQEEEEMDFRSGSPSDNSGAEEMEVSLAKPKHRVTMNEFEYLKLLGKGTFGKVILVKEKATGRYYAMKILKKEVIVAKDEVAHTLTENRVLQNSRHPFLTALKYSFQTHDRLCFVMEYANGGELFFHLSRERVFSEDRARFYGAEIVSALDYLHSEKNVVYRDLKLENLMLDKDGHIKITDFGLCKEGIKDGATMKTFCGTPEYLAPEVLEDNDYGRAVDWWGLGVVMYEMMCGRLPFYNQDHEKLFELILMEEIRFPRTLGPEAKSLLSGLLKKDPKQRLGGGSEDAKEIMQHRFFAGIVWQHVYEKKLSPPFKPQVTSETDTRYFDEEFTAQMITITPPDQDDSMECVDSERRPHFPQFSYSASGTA
Chain of Serine/threonine-protein kinase AKT (Homo sapiens) (P31751 whole entry, looked up): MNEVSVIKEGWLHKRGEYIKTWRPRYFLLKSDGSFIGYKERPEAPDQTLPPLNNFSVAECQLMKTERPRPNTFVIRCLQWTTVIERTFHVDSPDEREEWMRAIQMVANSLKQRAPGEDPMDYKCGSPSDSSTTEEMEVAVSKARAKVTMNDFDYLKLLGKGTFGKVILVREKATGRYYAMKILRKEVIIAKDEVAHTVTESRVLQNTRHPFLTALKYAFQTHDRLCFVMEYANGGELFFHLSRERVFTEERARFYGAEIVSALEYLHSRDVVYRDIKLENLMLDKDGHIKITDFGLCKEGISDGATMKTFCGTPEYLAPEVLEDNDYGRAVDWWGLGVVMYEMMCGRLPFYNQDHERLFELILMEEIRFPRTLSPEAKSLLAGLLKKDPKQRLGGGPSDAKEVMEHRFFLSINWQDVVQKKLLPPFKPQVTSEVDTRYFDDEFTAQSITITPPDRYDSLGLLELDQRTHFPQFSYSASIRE
Chain of Serine/threonine-protein kinase AKT (Homo sapiens) (Q9Y243 whole entry, looked up): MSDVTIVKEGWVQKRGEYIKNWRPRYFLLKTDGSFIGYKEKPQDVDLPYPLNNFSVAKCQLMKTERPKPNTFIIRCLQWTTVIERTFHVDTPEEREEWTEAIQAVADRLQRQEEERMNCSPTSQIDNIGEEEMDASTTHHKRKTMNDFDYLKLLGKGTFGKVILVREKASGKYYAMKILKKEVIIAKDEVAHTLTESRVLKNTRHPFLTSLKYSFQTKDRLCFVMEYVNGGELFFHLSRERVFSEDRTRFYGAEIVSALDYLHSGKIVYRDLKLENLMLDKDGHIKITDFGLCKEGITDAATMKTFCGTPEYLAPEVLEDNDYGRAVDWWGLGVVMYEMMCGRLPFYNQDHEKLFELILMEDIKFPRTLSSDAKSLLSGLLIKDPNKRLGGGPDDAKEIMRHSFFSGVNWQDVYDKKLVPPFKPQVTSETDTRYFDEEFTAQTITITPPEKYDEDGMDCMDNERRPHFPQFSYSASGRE
The test system of test [20] is MDA-MB-231. As to the kind of experiment: Induction of apoptosis in human MDA-MB-231 cells assessed as late apoptotic cells at 100 nM incubated for 48 hrs by Annexin V-PE staining based flow cytometric analysis (reference value: 0.32 to 0.82%). It counts as functional.
Test [21] has as its system MDA-MB-231. In words: Induction of cell cycle arrest in human MDA-MB-231 cells assessed as decrease in CDK2 level at 100 to 300 nM by Western blot analysis. As to conditions: dose 100-300 nM. It counts as functional, cell-based.
A further test relates to MDA-MB-453. In words: Antiproliferative activity against human MDA-MB-453 cells assessed as inhibition of cell growth incubated for 72 hrs by CCK8 assay. It counts as functional, cell-based. As to conditions: MDA-MB-453, 72 h.
Test [22] concerns MDA-MB-231. In words: Induction of cell cycle arrest in human MDA-MB-231 cells assessed as accumulation of cell at G2/M phase at 300 nM incubated for 24 hrs by PI staining based flow cytometric analysis (reference value: 24.34 to 24.44%). Format: functional.
Test [23] relates to MDA-MB-231. As to the kind of experiment: Antiproliferative activity against human MDA-MB-231 cells expressing AXL assessed as inhibition of cell growth incubated for 72 hrs by CCK8 assay. Format: functional, cell-based. As to conditions: MDA-MB-231, 72 h.
The subject of test [24] is MDA-MB-231. In words: Induction of cell cycle arrest in human MDA-MB-231 cells assessed as G0/G1 phase cells at 100 nM incubated for 24 hrs by PI staining based flow cytometric analysis (reference value: 63.32 to 64.94%). It counts as functional.
The test system of test [25] is MDA-MB-231. In words: Induction of apoptosis in human MDA-MB-231 cells assessed as viable cells at 300 nM incubated for 48 hrs by Annexin V-PE staining based flow cytometric analysis (reference value: 92.59 to 92.71%). It counts as functional. As to conditions: read-out: Activity.
Test [26] has as its system MDA-MB-231. As to the kind of experiment: Inhibition of migration in human MDA-MB-231 cells at 3.7 to 100 nM incubated for 18 hrs by transwell assay. Format: functional, cell-based. As to conditions: dose 3.7-100 nM.
Test [27] relates to MDA-MB-231. In words: Induction of cell cycle arrest in human MDA-MB-231 cells assessed as accumulation of cell at G2/M phase at 33.3 nM incubated for 24 hrs by PI staining based flow cytometric analysis (reference value: 24.34 to 24.44%). It counts as functional.
The test system of test [28] is MDA-MB-231. In words: Induction of apoptosis in human MDA-MB-231 cells assessed as early apoptotic cells at 300 nM incubated for 48 hrs by Annexin V-PE staining based flow cytometric analysis (reference value: 3.95 to 3.74%). Format: functional.
In test [29] the test system is MDA-MB-231. As to the kind of experiment: Inhibition of cell invasion in human MDA-MB-231 cells at 3.7 to 100 nM incubated for 18 hrs by transwell assay. As to conditions: dose 3.7-100 nM. It counts as functional, cell-based.
Test [30] concerns MDA-MB-231. As to the kind of experiment: Induction of apoptosis in human MDA-MB-231 cells assessed as necrotic cells at 100 nM incubated for 48 hrs by Annexin V-PE staining based flow cytometric analysis (reference value: 2.64 to 3.23%). Format: functional.
The subject of test [31] is MDA-MB-231. In words: Induction of apoptosis in human MDA-MB-231 cells assessed as late apoptotic cells at 300 nM incubated for 48 hrs by Annexin V-PE staining based flow cytometric analysis (reference value: 0.32 to 0.82%). Format: functional.

Structures are written as SMILES. The source made the active and inactive calls. The rule behind the calls is not given here. A value given as a limit tells only on which side of the number the result lay.

Chain of ALK tyrosine kinase receptor (Q9UM73 whole entry): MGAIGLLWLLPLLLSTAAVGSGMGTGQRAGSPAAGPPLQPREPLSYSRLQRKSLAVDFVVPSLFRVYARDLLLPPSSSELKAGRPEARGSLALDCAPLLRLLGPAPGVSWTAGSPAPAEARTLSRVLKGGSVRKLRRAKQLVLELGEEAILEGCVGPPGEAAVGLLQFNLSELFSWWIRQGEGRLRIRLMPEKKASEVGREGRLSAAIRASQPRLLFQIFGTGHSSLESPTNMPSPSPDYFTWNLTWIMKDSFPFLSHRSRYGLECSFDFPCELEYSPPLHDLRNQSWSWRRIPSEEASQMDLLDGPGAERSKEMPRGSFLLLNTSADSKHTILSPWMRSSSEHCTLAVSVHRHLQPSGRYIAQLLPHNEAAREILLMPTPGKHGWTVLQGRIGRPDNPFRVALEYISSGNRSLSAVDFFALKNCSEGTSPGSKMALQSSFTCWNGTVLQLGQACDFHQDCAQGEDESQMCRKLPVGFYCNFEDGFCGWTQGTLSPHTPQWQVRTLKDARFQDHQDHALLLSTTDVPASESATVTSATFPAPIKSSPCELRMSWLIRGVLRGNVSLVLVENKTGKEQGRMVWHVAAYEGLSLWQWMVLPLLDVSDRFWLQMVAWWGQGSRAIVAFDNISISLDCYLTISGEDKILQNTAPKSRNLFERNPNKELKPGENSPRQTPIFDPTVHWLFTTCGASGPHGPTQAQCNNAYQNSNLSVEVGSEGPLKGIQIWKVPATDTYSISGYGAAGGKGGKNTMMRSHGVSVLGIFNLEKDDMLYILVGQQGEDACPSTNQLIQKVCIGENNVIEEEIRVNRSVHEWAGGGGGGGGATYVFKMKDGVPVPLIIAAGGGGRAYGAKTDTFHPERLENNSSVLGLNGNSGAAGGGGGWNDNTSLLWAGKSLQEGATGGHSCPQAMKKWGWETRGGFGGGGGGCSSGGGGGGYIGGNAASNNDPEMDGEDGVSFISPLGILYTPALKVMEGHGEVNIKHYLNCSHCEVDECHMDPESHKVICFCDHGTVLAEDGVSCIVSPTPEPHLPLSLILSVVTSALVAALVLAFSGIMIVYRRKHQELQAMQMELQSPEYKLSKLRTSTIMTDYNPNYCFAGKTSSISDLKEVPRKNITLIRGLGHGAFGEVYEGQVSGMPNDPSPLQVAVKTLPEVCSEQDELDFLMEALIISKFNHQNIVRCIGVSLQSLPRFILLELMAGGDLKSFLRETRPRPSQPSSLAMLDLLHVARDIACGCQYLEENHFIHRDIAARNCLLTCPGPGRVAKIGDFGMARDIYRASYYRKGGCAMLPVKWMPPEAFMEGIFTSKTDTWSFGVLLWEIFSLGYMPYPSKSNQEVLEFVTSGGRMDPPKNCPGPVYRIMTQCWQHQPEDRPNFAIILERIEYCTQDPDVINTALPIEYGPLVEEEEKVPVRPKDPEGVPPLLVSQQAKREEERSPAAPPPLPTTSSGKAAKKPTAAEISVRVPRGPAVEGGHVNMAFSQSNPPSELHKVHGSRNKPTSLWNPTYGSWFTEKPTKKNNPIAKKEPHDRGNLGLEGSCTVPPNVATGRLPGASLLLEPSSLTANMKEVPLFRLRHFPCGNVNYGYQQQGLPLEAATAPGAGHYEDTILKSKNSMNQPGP

Consider `CC(=O)O[C@H]1C(=O)[C@@]2(C)[C@H]([C@H](OC(=O)c3ccccc3)[C@]3(O)C[C@H](OC(=O)[C@H](O)[C@@H](NC(=O)c4ccccc4)c4ccccc4)C(C)=C1C3(C)C)[C@]1(OC(C)=O)CO[C@@H]1C[C@@H]2O` [PACLITAXEL], for which the outcome in the test listed under Homo sapiens was inactive. Moreover, in [1], the IC50 was greater than 5 µM.
As to `CCc1ccc2c(c1)c(=O)c(C(=O)Nc1ccc(Oc3ncnc4cc(OC)c(OC)cc34)c(F)c1)c(C)n2C`, the Activity in the test with MDA-MB-231 [2] was found to be 3.02%; with MDA-MB-231 [4], 1.8%; in the test with MDA-MB-231 [5] it was 56.88%; in the test with MDA-MB-231 [6], 3.01%; in the test with MDA-MB-231 [7], 0.29%; in the test on MDA-MB-231 [8], 12.03%. Also, the Activity with MDA-MB-231 [10] was found to be 24.87%; in the test on MDA-MB-231 [12], 16.56%; with MDA-MB-231 [14] it was 9.32%; with MDA-MB-231 [15], 61.26%; in the test on MDA-MB-231 [17], 1.66%; with MDA-MB-231 [20], 0.41%. Also, the Activity with MDA-MB-231 [22] came out at 27.64%; with MDA-MB-231 [24] it was 52.76%; in the test with MDA-MB-231 [27], 26.91%; with MDA-MB-231 [28] it was 3.11%; with MDA-MB-231 [30], 1.99%; with MDA-MB-231 [31], 0.15%. In addition, the viability at 0.1 µM with MDA-MB-231 [3] is 94.6%. Also, the IC50 in the test on MDA-MB-436 is greater than 5 µM; in test [9] it was 4.92 nM; with MDA-MB-453, greater than 5 µM; with MDA-MB-231 [23], greater than 5 µM. In addition, the result in the test on MDA-MB-231 [11], in the test on MDA-MB-231 [13], in the test with MDA-MB-231 [18] and in the test with MDA-MB-231 [21] was inactive. In the test with MDA-MB-231 [16], the viability at 0.0333 µM was found to be 94.9%. Also, the inhibition result (in [19]; with MDA-MB-231 [26]) was “inactive” in each case. Besides, the viability at 0.3 µM in the test with MDA-MB-231 [25] was 95.1%. The inhibition entry in the test on MDA-MB-231 [29] is “Active”.

Broadly, the IC50 is the concentration needed to halve the response being measured.

The record behind these values is ChEMBL document CHEMBL5316328, “Discovery of AXL Degraders with Improved Potencies in Triple-Negative Breast Cancer (TNBC) Cells” (J Med Chem, 2023).
